In patent US5254533A, “Elfamycin” (Rhone-Poulenc Rorer S.A., priority 1990, dated 1993):
“Also recorded” adds a separate entry of the source.

Tests used:
[1] = system: Enterobacter cloacae IP 085; assay: MIC, antibacterial activity (agar dilution); format: cell-based; conditions: IP085, Mueller Hinton Agar, about 18 h at about 37° C
Staphylococcus faecalis = assay: MIC, antibacterial activity (agar dilution); format: cell-based; conditions: Mueller Hinton Agar, about 18 h at about 37° C
[2] = system: Staphylococcus aureus 209P; assay: MIC, antibacterial activity (agar dilution); format: cell-based; conditions: Mueller Hinton Agar, about 18 h at about 37° C
[3] = system: Staphylococcus aureus Weichbrodt; assay: MIC, antibacterial activity (agar dilution); format: cell-based; conditions: Mueller Hinton Agar, about 18 h at about 37° C
[4] = system: Proteus mirabilis Villette; assay: MIC, antibacterial activity (agar dilution); format: cell-based; conditions: Mueller Hinton Agar, about 18 h at about 37° C
[5] = Use as a growth factor in weaned piglets (Example 5); format: in vivo, weaned Large-White Belgian Landrace crossed piglets; conditions: for Initial weight: start of period 14-28 days; for Index of consumption: consumption/weight gain ratio
[6] = system: Bacteroides fragilis 479R; assay: MIC, antibacterial activity (agar dilution); format: cell-based; conditions: anaerobic, Mueller Hinton Agar + 2% Fildes, about 48 h at about 37° C
[7] = system: Bacteroides fragilis ATCC 25285; assay: MIC, antibacterial activity (agar dilution); format: cell-based; conditions: ATCC25285, anaerobic, Mueller Hinton Agar + 2% Fildes, about 48 h at about 37° C
[8] = system: Staphylococcus aureus S tA 2; assay: MIC, antibacterial activity (agar dilution); format: cell-based; conditions: STA2, Mueller Hinton Agar, about 18 h at about 37° C
Staphylococcus epidermis = assay: MIC, antibacterial activity (agar dilution); format: cell-based; conditions: Mueller Hinton Agar, about 18 h at about 37° C
[9] = system: Bacteroides melaninogenicus ATCC 15930; assay: MIC, antibacterial activity (agar dilution); format: cell-based; conditions: Prevotella intermedia, ATCC15930; anaerobic, Mueller Hinton Agar + 2% Fildes, about 48 h at about 37° C
Streptococcus bovis 3 = assay: MIC, antibacterial activity (agar dilution); format: cell-based; conditions: Streptococcus equinus, Mueller Hinton Agar, about 18 h at about 37° C
Pasterella multocida IP = assay: MIC, antibacterial activity (agar dilution); format: cell-based; conditions: Mueller Hinton Agar, about 18 h at about 37° C
Streptococcus bovis 5 = assay: MIC, antibacterial activity (agar dilution); format: cell-based; conditions: Streptococcus equinus, Mueller Hinton Agar, about 18 h at about 37° C
[10] = system: Escherichia coli INRA ECi; assay: MIC, antibacterial activity (agar dilution); format: cell-based; conditions: Mueller Hinton Agar, about 18 h at about 37° C
[11] = system: Staphylococcus aureus S tA 1; assay: MIC, antibacterial activity (agar dilution); format: cell-based; conditions: STA1, Mueller Hinton Agar, about 18 h at about 37° C
Streptococcus uberis 3 = assay: MIC, antibacterial activity (agar dilution); format: cell-based; conditions: Mueller Hinton Agar, about 18 h at about 37° C
Proteus vulgaris IP A272 = assay: MIC, antibacterial activity (agar dilution); format: cell-based; conditions: IPA272, Mueller Hinton Agar, about 18 h at about 37° C
Escherichia coli DCO = assay: MIC, antibacterial activity (agar dilution); format: cell-based; conditions: Mueller Hinton Agar, about 18 h at about 37° C
Description: (§1) Description of the test method used
(§2) The strains used, identified in the following table, were thawed at the time of use and then diluted to obtain the following concentrations:
(§3) 10^7 bacteria/ml for the aerobic bacteria
(§4) 10^6 bacteria/ml for the anaerobic bacteria.
(§5) A stock suspension of the product of formula (II) was prepared at a concentration of 3000 mg/1 in water. It was then diluted with water to obtain concentrations of 300 mg/l, 100 mg/l, 50 mg/l and 25 mg/l.
(§6) The culture media were the following:
(§7) Mueller Hinton Agar (MHA) for the aerobic cultures
(§8) Mueller Hinton Agar (MHA)+2% Fildes (MHA) for the anaerobic cultures.
(§9) Each dilution of product was added to 20 mls of the culture medium maintained supercooled at 45° C., and the medium was then poured into Petri dishes. After gentle agitation, the dishes were dried open for about 1 hour at about 37° C.
(§10) Inoculation was carried out with a DENLEY multipoint inoculator, which deposited 10^-3 ml of each inoculum per spot.
(§11) Reading was performed after about 18 hours of incubation at about 37° C. for the aerobes and about 48 hours at about 37° C. for the anaerobes.
(§12) The minimal inhibitory concentration (MIC) was the lowest concentration for which no growth was observed.

Clostridium septicum = assay: MIC, antibacterial activity (agar dilution); format: cell-based; conditions: anaerobic, Mueller Hinton Agar + 2% Fildes, about 48 h at about 37° C
Description: as §1, §2, §3, §4, §5, §6, §7, §8, §9, §10, §11, §12

[12] = system: Bacteroides thetaiotaomicron ATCC 29741; assay: MIC, antibacterial activity (agar dilution); format: cell-based; conditions: ATCC29741, anaerobic, Mueller Hinton Agar + 2% Fildes, about 48 h at about 37° C
Description: as §1, §2, §3, §4, §5, §6, §7, §8, §9, §10, §11, §12

Escherichia coli DC2 = assay: MIC, antibacterial activity (agar dilution); format: cell-based; conditions: Mueller Hinton Agar, about 18 h at about 37° C
Description: as §1, §2, §3, §4, §5, §6, §7, §8, §9, §10, §11, §12

Streptococcus uberis 8 = assay: MIC, antibacterial activity (agar dilution); format: cell-based; conditions: Mueller Hinton Agar, about 18 h at about 37° C
[13] = system: Pseudomonas aeruginosa IP A 237; assay: MIC, antibacterial activity (agar dilution); format: cell-based; conditions: IPA237, Mueller Hinton Agar, about 18 h at about 37° C

## C/C=C\C=C\C1OC(O)(C(CC)C(=O)NC/C=C/C=C(\C)C(OC)C(C)C2CC(O)C(/C=C/C=C/C=C/C(=O)O)O2)C(O)C(O)C1(C)C (centres unmarked) [formula (II)]
[1]
  MIC: > 300 µg/mL
Staphylococcus faecalis
  MIC: > 300 µg/mL
[2]
  MIC: > 300 µg/mL
[3]
  MIC: > 300 µg/mL
[4]
  MIC: > 300 µg/mL
[5]; 40 ppm in feed, 0-14 days, control 329
  Weight gain: 360 g/day
[5]; 40 ppm in feed, 0-14 days, control 614
  Consumption: 625 g/day
[5]; 40 ppm in feed, 0-28 days, control 445
  Weight gain: 490 g/day
[5]; 40 ppm in feed, 0-28 days, control 822
  Consumption: 847 g/day
[5]; 40 ppm in feed, 14-28 days, control 560
  Weight gain: 620 g/day
[5]; 40 ppm in feed, 14-28 days, control 1031
  Consumption: 1068 g/day
[5]; 40 ppm in feed, Table 4, 0-14 days, control 15.3
  Intermediate Weight: 15.8 kg
[5]; 40 ppm in feed, Table 5, 14-28 days, control 23.1
  Intermediate Weight: 24.5 kg
[5]; 40 ppm in feed, Table 6, 0-28 days, control 23.1
  Intermediate Weight: 24.5 kg
[5]; 40 ppm in feed, control 15.3
  Initial weight: 15.8 kg
[5]; 40 ppm, overall period 0-28 days
  improvement in growth relative to the basic diet: 10%
[5]; 60 ppm compared with the same product at 40 ppm, 0-28 days
  performances of the animals (in words): somewhat behind those observed with the same product at 40 ppm
[5]; 60 ppm in feed, 0-14 days, control 329
  Weight gain: 338 g/day
[5]; 60 ppm in feed, 0-14 days, control 614
  Consumption: 599 g/day
[5]; 60 ppm in feed, 0-28 days, control 445
  Weight gain: 463 g/day
[5]; 60 ppm in feed, 0-28 days, control 822
  Consumption: 812 g/day
[5]; 60 ppm in feed, 14-28 days, control 560
  Weight gain: 588 g/day
[5]; 60 ppm in feed, 14-28 days, control 1031
  Consumption: 1026 g/day
[5]; 60 ppm in feed, Table 4, 0-14 days, control 15.3
  Intermediate Weight: 15.3 kg
[5]; 60 ppm in feed, Table 5, 14-28 days, control 23.1
  Intermediate Weight: 23.5 kg
[5]; 60 ppm in feed, Table 6, 0-28 days, control 23.1
  Intermediate Weight: 23.5 kg
[5]; 60 ppm in feed, control 15.3
  Initial weight: 15.3 kg
[5]; 40 ppm in feed, 0-14 days, control 1.88
  Index of consumption: 1.77
[5]; 40 ppm in feed, 0-28 days, control 1.85
  Index of consumption: 1.73
[5]; 40 ppm in feed, 14-28 days, control 1.86
  Index of consumption: 1.73
[5]; 60 ppm in feed, 0-14 days, control 1.88
  Index of consumption: 1.78
[5]; 60 ppm in feed, 0-28 days, control 1.85
  Index of consumption: 1.75
[5]; 60 ppm in feed, 14-28 days, control 1.86
  Index of consumption: 1.74
[5]; overall period 0-28 days
  effect on index of consumption (in words): improved quite significantly
[5]; overall period 0-28 days, listed as product II
  effect on consumption (in words): did not bring about a significant improvement in consumption; also recorded: comparable to tylosin
[6]
  MIC: > 100 µg/mL
[7]
  MIC: > 100 µg/mL
[8]
  MIC: > 300 µg/mL
Staphylococcus epidermis
  MIC: > 300 µg/mL
[9]
  MIC: > 100 µg/mL
Streptococcus bovis 3
  MIC: > 300 µg/mL
Pasterella multocida IP
  MIC: > 300 µg/mL
Streptococcus bovis 5
  MIC: 25 µg/mL
[10]
  MIC: > 300 µg/mL
[11]
  MIC: > 300 µg/mL
Streptococcus uberis 3
  MIC: 50 µg/mL
Proteus vulgaris IP A272
  MIC: > 300 µg/mL
Escherichia coli DCO
  MIC: > 300 µg/mL
Clostridium septicum
  MIC: > 100 µg/mL
[12]
  MIC: > 100 µg/mL
Escherichia coli DC2
  MIC: 100 µg/mL
Streptococcus uberis 8
  MIC: 100 µg/mL
[13]
  MIC: > 300 µg/mL
